Remaining activity data for one compound are collected here from publication PMC4979471 (Cell Death Discovery, 2015).

Common to all, as to assay: Kinase selectivity, P33-radiolabeled assay
What all share (type): biochemical
Holding throughout (conditions): 10 μM ATP

The target in test [1] is T1, ALK2/ACVR1 (Homo sapiens, UniProt Q04771).
T1 construct: purchased Reaction Biology Corp
T1 sequence (Q04771 21-509): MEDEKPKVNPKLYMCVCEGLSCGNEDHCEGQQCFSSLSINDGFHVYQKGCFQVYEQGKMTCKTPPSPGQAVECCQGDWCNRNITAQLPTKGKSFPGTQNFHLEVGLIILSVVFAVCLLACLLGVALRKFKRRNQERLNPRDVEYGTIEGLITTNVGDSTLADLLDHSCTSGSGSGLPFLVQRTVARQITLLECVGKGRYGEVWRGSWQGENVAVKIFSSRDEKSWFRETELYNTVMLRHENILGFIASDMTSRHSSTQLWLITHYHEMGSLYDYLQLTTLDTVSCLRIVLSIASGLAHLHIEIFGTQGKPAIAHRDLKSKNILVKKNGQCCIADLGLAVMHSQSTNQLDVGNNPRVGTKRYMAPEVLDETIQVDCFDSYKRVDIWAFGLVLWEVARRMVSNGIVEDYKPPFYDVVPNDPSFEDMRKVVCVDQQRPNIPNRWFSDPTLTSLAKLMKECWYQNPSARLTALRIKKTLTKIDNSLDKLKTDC
The method in brief: (§1)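 Values show % enzyme activity normalised to DMSO vehicle. They come from one 10 μM compound concentration run twice, at an ATP level of 10 μM.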

Test [2] deals with T2, ARAF (Homo sapiens, UniProt P10398).
T2 construct: purchased Reaction Biology Corp
T2 sequence (P10398 1-606): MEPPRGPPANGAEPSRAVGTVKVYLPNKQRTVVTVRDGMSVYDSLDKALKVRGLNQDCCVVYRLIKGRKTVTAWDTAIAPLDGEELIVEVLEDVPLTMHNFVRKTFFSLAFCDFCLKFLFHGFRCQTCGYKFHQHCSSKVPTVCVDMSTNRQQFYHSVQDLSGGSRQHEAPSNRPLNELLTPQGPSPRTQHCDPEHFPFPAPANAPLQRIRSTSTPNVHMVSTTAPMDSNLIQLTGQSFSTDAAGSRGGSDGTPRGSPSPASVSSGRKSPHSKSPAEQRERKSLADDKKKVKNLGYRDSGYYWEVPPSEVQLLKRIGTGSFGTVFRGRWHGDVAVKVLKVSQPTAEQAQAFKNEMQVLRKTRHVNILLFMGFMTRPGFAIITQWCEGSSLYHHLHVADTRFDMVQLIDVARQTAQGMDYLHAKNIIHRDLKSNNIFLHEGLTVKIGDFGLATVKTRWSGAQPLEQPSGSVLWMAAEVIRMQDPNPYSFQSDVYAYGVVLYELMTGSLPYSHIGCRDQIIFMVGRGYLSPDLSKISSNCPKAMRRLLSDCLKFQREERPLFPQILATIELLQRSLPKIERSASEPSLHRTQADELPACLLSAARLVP
An outline of the steps: as §1

For test [3], the target named is T3, HIPK3 (Homo sapiens, UniProt Q9H422).
T3 construct: purchased Reaction Biology Corp
T3 sequence (Q9H422 whole entry): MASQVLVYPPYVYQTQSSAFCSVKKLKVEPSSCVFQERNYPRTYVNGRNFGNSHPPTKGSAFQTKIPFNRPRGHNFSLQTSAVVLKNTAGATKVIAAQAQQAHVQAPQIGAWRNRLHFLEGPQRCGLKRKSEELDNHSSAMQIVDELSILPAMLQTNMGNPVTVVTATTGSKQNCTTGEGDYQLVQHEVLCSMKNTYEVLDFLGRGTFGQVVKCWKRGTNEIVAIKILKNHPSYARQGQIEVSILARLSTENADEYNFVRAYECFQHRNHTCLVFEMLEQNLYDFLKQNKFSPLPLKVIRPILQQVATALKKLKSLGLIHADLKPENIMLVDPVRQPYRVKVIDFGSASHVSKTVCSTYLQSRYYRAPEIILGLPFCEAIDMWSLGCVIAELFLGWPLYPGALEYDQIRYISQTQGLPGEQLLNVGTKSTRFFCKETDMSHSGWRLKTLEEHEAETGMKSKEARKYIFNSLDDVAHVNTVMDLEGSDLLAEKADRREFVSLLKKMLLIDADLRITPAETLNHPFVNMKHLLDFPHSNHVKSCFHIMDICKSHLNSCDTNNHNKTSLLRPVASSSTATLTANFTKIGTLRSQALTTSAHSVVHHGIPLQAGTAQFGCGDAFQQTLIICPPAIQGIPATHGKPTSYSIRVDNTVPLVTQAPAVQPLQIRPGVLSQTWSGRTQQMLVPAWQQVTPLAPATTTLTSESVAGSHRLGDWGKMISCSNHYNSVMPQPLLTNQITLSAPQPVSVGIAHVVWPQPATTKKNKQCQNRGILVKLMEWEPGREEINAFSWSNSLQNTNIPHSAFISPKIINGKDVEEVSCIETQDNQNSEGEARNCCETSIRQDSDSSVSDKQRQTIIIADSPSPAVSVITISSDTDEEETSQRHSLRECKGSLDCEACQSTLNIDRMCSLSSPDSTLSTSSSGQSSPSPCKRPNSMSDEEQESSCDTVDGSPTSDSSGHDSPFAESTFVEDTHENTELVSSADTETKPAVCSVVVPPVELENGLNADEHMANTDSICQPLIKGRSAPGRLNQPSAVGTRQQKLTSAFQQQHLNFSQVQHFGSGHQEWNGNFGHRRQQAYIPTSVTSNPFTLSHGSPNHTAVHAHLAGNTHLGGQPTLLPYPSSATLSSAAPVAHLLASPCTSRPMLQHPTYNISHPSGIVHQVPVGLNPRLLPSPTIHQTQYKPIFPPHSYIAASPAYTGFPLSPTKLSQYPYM
The method in brief: as §1

Test [4] has as its target T4, Haspin (Homo sapiens, UniProt Q8TF76).
T4 construct: purchased Reaction Biology Corp
T4 sequence (Q8TF76 1-798): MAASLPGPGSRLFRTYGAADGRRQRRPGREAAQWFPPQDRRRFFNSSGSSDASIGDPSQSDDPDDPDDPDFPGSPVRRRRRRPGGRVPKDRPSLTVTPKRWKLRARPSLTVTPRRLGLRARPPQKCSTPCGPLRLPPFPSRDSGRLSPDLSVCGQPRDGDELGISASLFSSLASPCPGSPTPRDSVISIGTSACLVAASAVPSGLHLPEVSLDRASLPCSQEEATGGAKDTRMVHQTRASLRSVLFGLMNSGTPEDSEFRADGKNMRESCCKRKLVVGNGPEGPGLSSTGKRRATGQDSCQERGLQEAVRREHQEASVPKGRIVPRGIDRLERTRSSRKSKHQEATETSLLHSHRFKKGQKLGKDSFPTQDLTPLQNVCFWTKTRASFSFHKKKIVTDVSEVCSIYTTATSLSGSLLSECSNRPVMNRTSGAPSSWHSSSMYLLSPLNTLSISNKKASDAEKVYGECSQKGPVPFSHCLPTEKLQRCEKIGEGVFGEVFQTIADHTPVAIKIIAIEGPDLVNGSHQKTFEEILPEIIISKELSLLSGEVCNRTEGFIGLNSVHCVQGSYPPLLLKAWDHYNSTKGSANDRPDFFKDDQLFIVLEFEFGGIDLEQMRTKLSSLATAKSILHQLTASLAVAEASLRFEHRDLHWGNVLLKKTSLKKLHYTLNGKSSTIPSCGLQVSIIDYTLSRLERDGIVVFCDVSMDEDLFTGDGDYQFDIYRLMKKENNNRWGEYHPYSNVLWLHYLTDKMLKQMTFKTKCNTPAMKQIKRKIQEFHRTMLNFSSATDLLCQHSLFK
An outline of the steps: as §1

Test [5] concerns the target T5, MEKK2 (Homo sapiens, UniProt Q9Y2U5).
T5 construct: purchased Reaction Biology Corp
T5 sequence (Q9Y2U5 1-619): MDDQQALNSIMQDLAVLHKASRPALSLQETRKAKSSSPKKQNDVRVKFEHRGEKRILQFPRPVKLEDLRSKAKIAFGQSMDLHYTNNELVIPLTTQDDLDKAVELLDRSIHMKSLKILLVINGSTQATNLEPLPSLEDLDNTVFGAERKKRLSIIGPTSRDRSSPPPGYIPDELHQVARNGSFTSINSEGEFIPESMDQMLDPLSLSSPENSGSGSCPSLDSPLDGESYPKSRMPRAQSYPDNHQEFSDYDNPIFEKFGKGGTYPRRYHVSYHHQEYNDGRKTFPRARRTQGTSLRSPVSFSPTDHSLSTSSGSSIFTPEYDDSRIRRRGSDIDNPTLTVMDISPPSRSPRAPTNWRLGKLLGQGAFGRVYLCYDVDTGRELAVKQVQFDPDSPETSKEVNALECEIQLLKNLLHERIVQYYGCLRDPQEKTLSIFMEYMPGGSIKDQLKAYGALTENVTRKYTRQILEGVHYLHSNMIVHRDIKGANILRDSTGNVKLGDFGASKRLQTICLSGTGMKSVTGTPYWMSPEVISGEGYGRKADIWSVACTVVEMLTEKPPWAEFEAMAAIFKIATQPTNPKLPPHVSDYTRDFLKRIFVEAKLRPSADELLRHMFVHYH
The method in brief:
as §1

The target in test [6] is T6, RAF1 (Homo sapiens, UniProt P04049).
T6 construct: purchased Reaction Biology Corp
T6 sequence (P04049 whole entry): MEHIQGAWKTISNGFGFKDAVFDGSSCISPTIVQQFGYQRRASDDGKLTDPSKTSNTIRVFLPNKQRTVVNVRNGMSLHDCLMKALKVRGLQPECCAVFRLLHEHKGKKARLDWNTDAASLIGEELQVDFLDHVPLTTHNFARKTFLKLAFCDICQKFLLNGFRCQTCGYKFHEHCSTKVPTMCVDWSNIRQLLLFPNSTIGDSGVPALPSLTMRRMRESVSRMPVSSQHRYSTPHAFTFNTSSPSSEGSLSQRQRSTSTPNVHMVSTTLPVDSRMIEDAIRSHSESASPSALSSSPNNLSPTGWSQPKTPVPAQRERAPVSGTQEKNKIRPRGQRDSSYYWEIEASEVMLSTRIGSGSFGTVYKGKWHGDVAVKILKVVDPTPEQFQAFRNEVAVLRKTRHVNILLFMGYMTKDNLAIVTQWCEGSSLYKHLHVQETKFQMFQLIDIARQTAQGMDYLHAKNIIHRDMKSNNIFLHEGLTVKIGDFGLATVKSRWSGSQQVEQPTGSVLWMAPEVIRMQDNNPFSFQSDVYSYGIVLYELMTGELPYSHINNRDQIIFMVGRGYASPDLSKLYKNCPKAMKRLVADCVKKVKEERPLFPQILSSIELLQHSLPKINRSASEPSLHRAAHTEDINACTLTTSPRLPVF
An outline of the steps:
as §1

Where [7] appears, read: read-out: % Enzyme Activity (relative to DMSO controls) AVG.
[8] abbreviates: read-out: % Enzyme Activity (relative to DMSO controls) Data 1.
[9] abbreviates: read-out: % Enzyme Activity (relative to DMSO controls) Data 2.

Read-outs that look alike come from different tables or passages of the source.

Regarding `CC(C)(C)C(=O)N1N=CC[C@H]1c1ccccc1` [GSK′963], the remaining activity at 10 µM in test [1] (setting [7]) came to 98.1%; in test [1] (setting [8]) it was 94%; in test [1] (setting [9]), 102%; in test [2] (setting [7]), 93.7%; in test [2] (setting [8]) it was 94.6%; in test [2] (setting [9]), 92.9%. The remaining activity at 10 µM in test [3] (setting [7]) worked out at 100%; in test [3] (setting [8]), 100%; in test [3] (setting [9]), 101%; in test [4] (setting [7]), 96.7%; in test [4] (setting [8]), 97.3%; in test [4] (setting [9]), 96.2%. Besides, the remaining activity at 10 µM in test [5] (setting [7]) was found to be 114%; in test [5] (setting [8]), 114%; in test [5] (setting [9]), 115%; in test [6] (setting [7]) it was 93.7%; in test [6] (setting [8]) it was 94.8%; in test [6] (setting [9]) it was 92.7%.
